Measurements: patent US20240197756A1, “METHODS OF TREATMENT WITH NEUROACTIVE STEROIDS” (priority 2021, published 2024)
“Also recorded” adds a separate entry of the source.

Key:
harmaline-induced tremor = test: rHIT model, coadministration of Compound 1 and Compound 2; type: in vivo, rat
Protocol: Rat Harmaline Induced Tremor (rHIT): The rHIT model was used to assess the impact of the combination of Compound 1 and Compound 2 on reducing the symptoms of tremor. Male SD rats (SLAC, Shanghai, China) weighing about 250 g at the time of testing were housed in a 12:12 light-dark cycle room throughout the study, with the lights on from 5 a.m. to 5 p.m, and fed ad libitum. […]
The rHIT methods described in Example 5 were used. […] After the 20-minute baseline recording, rats were dosed with harmaline and the post-harmaline effect was measured for 20 minutes. […]

[1] = Example 3 Part C: tablet single ascending doses, morning fasted vs 8 p.m., plasma pharmacokinetics; type: in vivo, human; conditions: for half-life: Mean (SD); for AUC(0-inf): AUCinf
Protocol: Patients with severe major depressive disorder (MDD) aged 18 to 65 years were treated with an oral suspension or tablet of Compound 1 to study the effect of food and time of administration on the pharmacokinetics, as well as the safety and tolerability of these formulations.
Part C is a randomized, participant- and Investigator-blinded, Sponsor-unblinded, placebo-controlled, parallel-group design to evaluate the pharmacokinetics and safety of single ascending doses of a Compound 1 citrate tablet. One cohort of 16 participants was planned, with 12 participants receiving Compound 1 and 4 participants receiving placebo. Part C also evaluated administration of a single dose level at 8 p.m., both 2 hours and 4 hours after dinner.
Preliminary pharmacokinetics data from Part A, where 45 mg and 60 mg of oral suspension were administered (Cohort 1), and Part C, where 40 mg (2×20 mg), 60 mg (3×20 mg) and 80 mg (4×20 mg) of the tablet formulation were administered, have been analyzed and are summarized below.
A tablet comprising Compound 1 was administered as single ascending doses of 40 mg, 60 mg and 80 mg under fasted conditions in the morning (FIG. 5). The 60 mg dosage was administered on two additional occasions at 8 p.m., once 4 hours after dinner and once 2 hours after dinner (FIG. 6).

[2] = system: GABAA receptors in the brain; test: Quantitative EEG (qEEG) alpha- and beta-band power in Phase 1 MAD trial; type: in vivo, human
Protocol: Pharmacodynamic (PD) effects of first dose and steady state Compound 1 concentrations on wake electroencephalograms (EEGs) were studied. Standard 16 channel continuous EEGs were obtained at the following time points: Day-1, Day 1 (1 hour after dosing), and Day 14 (1 hour after dosing).
The effect of Compound 1 on the quantitative EEG (qEEG) was measured in a Phase 1 multiple ascending dose (MAD) trial to understand the pharmacodynamic effect of Compound 1 on GABAA receptor activation. The frequency and amplitude of the detected electrical signals in response to treatment with a brain-active compound provide insights into brain function and brain state (e.g., awake, deep sleep, etc.) or pharmacological response. For instance, changes in power in the beta-band frequency can be used as a pharmacodynamic biomarker of GABAA receptor activation in response to a brain active compound.
EEG was recorded for 5 minutes in quiet eyes open condition using a standard 10-20 EEG electrode placement system at pre-dose and 1, 2, 4, 8 and 24 hours after dosing. Each lead was referenced to the Oz electrode. Artifacts were removed via visual inspections. EEG spectra were computed using Fourier transformation. The alpha-band frequency was set to 8.5-12.5 Hz, the beta-band frequency was set to 12.5 to 30 Hz. The ratio between each post-dose value and the associated pre-dose value for each electrode was used to calculate the fold EEG change in each frequency band so that a ratio of 1 represents no change from baseline. The mean of the central 9 electrodes was used for each subject and timepoint for final analysis.

[3] = 30 mg, one hour post-dose on Day 1, healthy volunteers
[4] = 60 mg, one hour post-dose on Day 1, healthy volunteers
[5] = healthy volunteers, days 1 and 14

With `COC[C@@]1(O)CC[C@@]2(C)[C@@H](CC[C@@H]3[C@@H]2CC[C@]2(C)[C@@H](C(=O)Cn4ccnc4)CC[C@@H]32)C1` [Compound 1, 3α-Hydroxy-3β-methoxymethyl-21-(1′-imidazolyl)-5α-pregnan-20-one] the “effect of Compound 1 on the efficacy of Compound 2 in treating tremor” value (harmaline-induced tremor; Compound 1 3 mg/kg p.o.) was “does not inhibit”, the “effect of the addition of Compound 1 on the tremor-reducing effects of Compound 2” value (harmaline-induced tremor; Compound 1 3 mg/kg p.o. (FIG. 11)) was “did not appear to enhance” and the Tmax ([1]; human, in vivo, 40 mg) was 1.5 h. It also gave a half-life ([1]; human, in vivo, 40 mg, 9 a.m. administration (fasted), N = 13) of 11.9 h, an AUC(0-inf) ([1]; human, in vivo, 40 mg) of 1390 ng·h/mL and a Cmax ([1]; human, in vivo, 40 mg) of 181 ng/mL. For the same compound, the Tmax ([1]; human, in vivo, 60 mg) was 2.5 h, the tmax ([1]; human, in vivo, 60 mg) was 2.5 (1.0, 3.0) h and the half-life ([1]; human, in vivo, 60 mg, 8 p.m. administration (60 mg), 2 h after dinner, N = 12) was 9.6 h. The half-life ([1]; human, in vivo, 60 mg, 8 p.m. administration (60 mg), 4 h after dinner, N = 11) was 11.4 h, the half-life ([1]; human, in vivo, 60 mg, 9 a.m. administration (fasted), N = 12) was 11.5 h and the AUC(0-inf) ([1]; human, in vivo, 60 mg) was 2610 ng·h/mL. For the same compound, the Cmax ([1]; human, in vivo, 60 mg) was 408 ng/mL, the half-life ([1]; human, in vivo, 80 mg, 9 a.m. administration (fasted), N = 12) was 11.4 h and the AUC(0-inf) ([1]; human, in vivo, 80 mg) was 3980 ng·h/mL. The Cmax ([1]; human, in vivo, 80 mg) was 546 ng/mL, the “dose proportionality of exposure” value ([1]; tablet, fasted, between 60 mg and 80 mg) was “closer to dose-proportional” and the “increase in exposure over a 2-fold increase in dose” value ([1]; tablet, fasted, from 40 mg to 80 mg) was roughly 3 fold. For the same compound, the “effects on the qEEG alpha and beta power at Day 14” value ([2]; 30 mg and 60 mg QD) was “sustained”, the “average increase in qEEG alpha power compared to baseline” value [2, 3] was “approximately 1.5 fold” and the “average increase in qEEG beta power compared to baseline” value [2, 3] was roughly 1.6 fold. For the same compound, the “increase in qEEG alpha power compared to baseline” value [2, 4] was 2.6 fold, the “increase in qEEG beta power compared to baseline” value [2, 4] was 2.8 fold and the “increases in beta power” value ([2]; MAD study, up to 60 mg) was “up to 2.8 fold”. The “power of the alpha-band frequency (qEEG)” value [2, 5] was “marked increases; also recorded: markedly increase” and the “power of the beta-band frequency (qEEG)” value [2, 5] was “marked increases; also recorded: markedly increase”.
